The values below come from patent US9814754B2, “Combinations with a backbone-cyclized peptide” (POLYPHOR AG, priority 2012, dated 2017).

What all share (type): in vivo
Assay [1] concerns Pseudomonas aeruginosa clinical isolate PA18298. As to the kind of experiment: Murine pneumonia model, compound 1 in combination with amikacin (Example 4). To be noted: lung. How it is done:
The efficacy and ED50 of the compound of formula (I) (“compound 1”) in combination with amikacin was determined against Pseudomonas aeruginosa clinical isolate PA18298 in a pneumonia model in mice. Colony counts in lung were determined at 20 hours post treatment.
Fresh overnight colonies of PA18298 from a 5% Horse Blood Agar plate were suspended in 0.9% sterile saline to approximately 10^8 CFU/ml and further diluted to approximately 5×10^7 CFU/ml. Female mice (DBA/2, outbred, 18-22 g, Charles River) were anesthetized with 0.1 ml of Zoletil and inoculated via the nose with a pipette with 0.05 ml of the bacteria suspension containing approximately 10^6 CFU. 4 hours after inoculation, the mice were treated orally with 45 μl neurophen (20 mg ibuprofen/ml corresponding to approximately 30 mg/kg) as pain relief.
175 mg of amikacin (Sigma) were dissolved in 5 ml 0.9% sterile saline to a concentration of 35 mg/ml and further diluted with saline to 3 mg/ml. The mice were treated subcutaneously with 0.2 ml in the neck region with a single dose at 3 hours post infection corresponding to 30 mg/kg on the basis of a mean animal weight of 20 g.
One vial containing 10 mg of active compound 1 was dissolved in 2 ml 0.9% sterile saline to a concentration of 5 mg/ml and further diluted with saline […], 1, 0.55, 0.275 and 0.137 mg/ml. The mice were treated subcutaneously with 0.2 ml in the neck region with a single dose at 4 hours post infection with a dose calculation based on a mean animal weight of 20 g. Colistin was used as a control in the same manner with a fixed dose of 20 mg/kg.
(§1) Colony counts were determined post inoculation at 4 hours (untreated mice) and 24 hours (treated and vehicle-only treated mice). Immediately after the mice were sacrificed, the lungs were collected and frozen at −20° C. After thawing, the organs were homogenized in 1 ml 0.9% saline. Each sample was then 10 fold diluted in saline and 20 μl spots were applied on blood agar plates. All agar plates were incubated 18-24 hours at 35° C. in ambient air.
The CFU/ml in the inoculum was determined to 7.4 log10 CFU/ml corresponding to 6.17 log10 CFU/mouse.
At 4 hours after inoculation the mean log 10 CFU/lung was 5.06 and the CFU level declined to 1.55 mean log 10 CFU/lung after 24 hours in the vehicle group.

The subject of assay [2] is Pseudomonas aeruginosa clinical isolate PAX11045. As to the kind of experiment: Murine pneumonia model, compound 1 in combination with azithromycin (Example 2). Conditions: 50 mg/kg alone, lung. How it is done: The efficacy and ED50 of the compound of formula (I) (“compound 1”) in combination with azithromycin was determined against Pseudomonas aeruginosa clinical isolate PAX11045 in a pneumonia model in mice. Colony counts in lung were determined at 20 hours post treatment.
Fresh overnight colonies of PAX11045 from a 5% Horse Blood Agar plate were suspended in 0.9% sterile saline to approximately 10^8 CFU/ml and further diluted to approximately 5×10^7 CFU/ml. Female mice (DBA/2, outbred, 17-23 g, Charles River) were anesthetized with 0.1 ml of Zoletil and inoculated via the nose with a pipette with 0.05 ml of the bacteria suspension containing approximately 10^6 CFU. 4 hours after inoculation, the mice were treated orally with 45 μl neurophen (20 mg ibuprofen/ml corresponding to approximately 30 mg/kg) as pain relief.
480 mg of azithromycin (Zitromax™, Pfizer) were dissolved in 4.8 ml 0.9% sterile saline to a concentration of 100 mg/ml and further diluted with saline to 5 mg/ml. The mice were treated subcutaneously with 0.2 ml in the neck region with a single dose at 3 hours post infection corresponding to 50 mg/kg on the basis of a mean animal weight of 20 g.
(§2) The mice were treated subcutaneously with 0.2 ml in the neck region with a single dose at 4 hours post infection with a dose calculation based on a mean animal weight of 20 g.
as §1

Assay [3] shares this test system. The assay can be described thus: Murine pneumonia model, compound 1 in combination with ertapenem (Example 1). Conditions: 50 mg/kg alone, lung, p<0.001. How it is done:
The efficacy and ED50 of the compound of formula (I) (“compound 1”) in combination with ertapenem was determined against Pseudomonas aeruginosa clinical isolate PAX11045 in a pneumonia model in mice. Colony counts in lung were determined at 20 hours post treatment.
Fresh overnight colonies of PAX11045 from a 5% Horse Blood Agar plate were suspended in 0.9% sterile saline to approximately 10^8 CFU/ml and further diluted to approximately 5×10^7 CFU/ml. Female mice (DBA/2, outbred, 18-22 g, Charles River) were anesthetized with 0.1 ml of Zoletil and inoculated via the nose with a pipette with 0.05 ml of the bacteria suspension containing approximately 10^6 CFU. 4 hours after inoculation, the mice were treated orally with 45 μl neurophen (20 mg ibuprofen/ml corresponding to approximately 30 mg/kg) as pain relief.
1 g of ertapenem (Invanz™, MSD Denmark Aps) was dissolved in 10 ml 0.9% sterile saline to a concentration of 100 mg/ml and further diluted with saline to 5 mg/ml. The mice were treated subcutaneously with 0.2 ml in the neck region with a single dose at 3 hours post infection corresponding to 50 mg/kg on the basis of a mean animal weight of 20 g.
as §2, §1
The CFU/ml in the inoculum was determined to 7.65 log10 CFU/ml corresponding to 6.35 log10 CFU/mouse.
At 4 hours after infection the mean log10 CFU/lung was 5.14 and the CFU level remained at a similar level after 24 hours in the vehicle-only group.

In assay [4] the test system is Pseudomonas aeruginosa clinical isolate PA18298. The assay can be described thus: Murine pneumonia model, compound 1 alone (Reference 3). To be noted: 20 mg/kg, positive control, lungs, p<0.001. Here is the method:
Efficacy in Murine Pneumonia Model Against Pseudomonas aeruginosa PA18298 and Estimation of ED50
The efficacy and ED50 of the compound of formula (I) (“compound 1”) was determined against Pseudomonas aeruginosa clinical isolate PA18298 in a pneumonia model in mice. Colony counts in the lungs were determined at 18-20 hours post treatment.
Fresh overnight colonies of PA18298 from a 5% Horse Blood Agar plate were suspended in 0.9% sterile saline to approximately 10^8 CFU/ml and further diluted to approximately 4×10^7 CFU/ml. Female mice (DBA/2, outbred, 18-22 g, Charles River) were anesthetized with 0.1 ml of Zoletil (tiletamine+zolazepam) and inoculated via the nose with a pipette with 0.05 ml of the bacteria suspension containing approximately 1×10^6 CFU. 4 hours after inoculation, the mice were treated orally with 45 μl neurophen (20 mg ibuprofen/ml corresponding to approximately 30 mg/kg) as pain relief.
One vial containing 10 mg of active compound 1 was dissolved in 2 ml 0.9% sterile saline to a concentration of 5 mg/ml and was further diluted with saline to 2, 1, 0.75, 0.55, 0.275 and 0.137 mg/ml. The mice were treated subcutaneously with 0.2 ml in the neck region with a single dose at 4 hours post infection with a dose calculation based on a mean animal weight of 20 g. As positive control colistin was used in the same manner with a fixed dose of 20 mg/kg.
Colony counts were determined post inoculation at 4 hours (untreated mice) and 24 hours (treated and vehicle-only treated mice). Immediately after the mice were sacrificed, the lungs were collected and frozen at −20° C. After thawing, the organs were homogenized in 1 ml 0.9% saline. Each sample was then 10-fold diluted in saline and 20 μl spots were applied on blood agar plates. All agar plates were incubated 18-48 hours at 35° C. in ambient air.
The CFU/ml in the inoculum was determined to 7.49 log10 CFU/ml corresponding to 6.20 log10 CFU/mouse.
At 4 hours after infection the mean log10 CFU/lung was 5.05 and the CFU level declined to 2.62 at 24 hours post inoculation in the vehicle-only group.

In assay [5] the test system is Pseudomonas aeruginosa clinical isolate PA9349. As to the kind of experiment: Murine pneumonia model, compound 1 in combination with ciprofloxacin (Example 3). Conditions: colistin 20 mg/kg alone, lung. How it is done:
Colony counts in lung were determined at 20 hours post treatment.
Fresh overnight colonies of PA9349 from a 5% Horse Blood Agar plate were suspended in 0.9% sterile saline to approximately 10^8 CFU/ml and further diluted to approximately 10^7 CFU/ml. Female mice (C57BL/6 […], outbred, 20-25 g, Hellenic Pasteur Institute) were anesthetized with ether and inoculated via the nose with a pipette with 0.05 ml of the bacteria suspension containing approximately 10^6 CFU. After inoculation, mice were treated with paracetamol suppositories as a pain relief.
The mice were treated subcutaneously with 0.2 ml in the neck region with a single dose at 3 hours post infection corresponding to 20 mg/kg on the basis of a mean animal weight of 20 g.
1 vial was further diluted with saline to 1, 0.8 and 0.4 mg/ml. The mice were treated subcutaneously with 0.25 ml (25 mg/kg dose) or 0.2 ml (for all other doses) in the neck region with a single dose at 4 hours post infection with a dose calculation based on a mean animal weight of 20 g.
as §1

`NCC[C@H](O)C(=O)N[C@@H]1C[C@H](N)[C@@H](O[C@H]2O[C@H](CN)[C@@H](O)[C@H](O)[C@H]2O)[C@H](O)[C@H]1O[C@H]1O[C@H](CO)[C@@H](O)[C@H](N)[C@H]1O` [amikacin, reference compound]: the “effect on bacterial loads” value in assay [1] (amikacin 30 mg/kg alone) was “some effects on reducing the bacterial loads”. For `CC[C@H]1OC(=O)[C@H](C)[C@@H](O[C@H]2C[C@@](C)(OC)[C@@H](O)[C@H](C)O2)[C@H](C)[C@@H](O[C@@H]2O[C@H](C)C[C@H](N(C)C)[C@H]2O)[C@](C)(O)C[C@@H](C)CN(C)[C@H](C)[C@@H](O)[C@]1(C)O` [azithromycin, reference compound], in assay [2], the “effect on bacterial loads” value is reported as “no effect on the bacterial loads”. `C[C@@H](O)[C@H]1C(=O)N2C(C(=O)O)=C(S[C@@H]3CN[C@H](C(=O)Nc4cccc(C(=O)O)c4)C3)[C@H](C)[C@H]12` [ertapenem, reference compound]: the “effect on bacterial loads” value in assay [3] is recorded as “significant effect on reducing the bacterial loads”. Take colistin [reference compound]: the “effect on bacterial loads” value in assay [4] is “some effect on reducing the bacterial loads”; in assay [1] (colistin 20 mg/kg, control), “some effects on reducing the bacterial loads”; in assay [5], “no or only slight effects on the bacterial loads”.
